Biological target: T1, human 5-HT4(b) receptor (Homo sapiens, UniProt Q13639)
T1 construct: overexpressing the full-length human 5-HT4(b) receptor with an N-terminal FLAG tag; FLAG (N); host or cells: CHO-K1
Assay: 5-HT4(b) agonist assay (cAMP accumulation)
Format: cell-based
Conditions: CHO-K1 cells overexpressing full-length human 5-HT4(b) receptor; cAMP accumulation after 30 minutes at room temperature; 1 μM 5-HT as 100% activity
Description: One may determine the activity of the compounds of Formula 1 using a variety of methods, including in vitro and in vivo methods. The ability of the example compounds to activate the 5-HT4(b) receptor may be determined using the following assay.
Chinese hamster ovary (CHO-K1) cells overexpressing the full-length human 5-HT4(b) receptor with an N-terminal FLAG tag (Multispan Inc, Hayward, CA) are cultured per the manufacturer's protocol in 1:1 DMEM/F12 (Thermo Fisher, Waltham, MA) with 10% fetal bovine serum (GE Healthcare, Pittsburgh, PA) and 10 μg/mL puromycin (Thermo Fisher, Waltham, MA), and stored in frozen aliquots to be used as assay ready cells. On the day of the assay, cells are removed from frozen storage, washed two times in 1× Kreb's Ringer Buffer (Zenbio, Research Triangle Park, NC), and re-suspended to a concentration of 4×10^6 cells/mL in 1× Kreb's Ringer Buffer. Test compound (50 nL) in 100% DMSO is acoustically dispensed in low volume, white, 384-well polypropylene plates (Corning, Tewksbury, MA), followed by the addition of 4×10^4 cells per well in a total volume of 10 μL. Cells are incubated with test compound for 30 minutes at room temperature in the dark, and cAMP accumulation is measured using the Cisbio HiRange cAMP assay kit (Bedford, MA) per the manufacturer's protocol. Anti-cAMP antibody and d2-cAMP tracer reagents diluted in lysis/detection buffer are incubated in the dark for 1 hour, and results are measured on a Pherastar plate reader (BMG Labtech, Ortenberg, Germany). Data are normalized using 1 μM 5-HT (Sigma Aldrich, St. Louis, MO) as 100% activity, and DMSO alone as 0% activity.
The ability of the example compounds to activate the 5-HT4(b) receptor was evaluated using the assay described in the Biological Activity section. Table 1, below, lists EC50 from the 5-HT4(b) agonist assay for each of the example compounds, where smaller EC50 values represent higher potency.

T1 sequence (Q13639 whole entry): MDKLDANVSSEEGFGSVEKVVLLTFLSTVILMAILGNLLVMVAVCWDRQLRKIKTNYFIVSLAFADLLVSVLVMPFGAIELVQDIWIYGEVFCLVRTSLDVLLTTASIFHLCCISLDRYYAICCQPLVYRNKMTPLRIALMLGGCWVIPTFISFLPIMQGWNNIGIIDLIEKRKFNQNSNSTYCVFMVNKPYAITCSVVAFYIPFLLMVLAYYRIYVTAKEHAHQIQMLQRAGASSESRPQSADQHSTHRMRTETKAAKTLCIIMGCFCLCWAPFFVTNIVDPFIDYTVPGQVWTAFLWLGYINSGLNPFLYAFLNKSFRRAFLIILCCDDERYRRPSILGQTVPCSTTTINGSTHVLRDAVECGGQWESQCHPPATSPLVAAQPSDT

Row | SMILES | EC50 [nM]
1 | COc1cc(N)c(Cl)cc1C(=O)N[C@@H]1CCN(CCCCCC(=O)N[C@@H]2CCCN(CCCCCCCC(=O)NC[C@H](O)[C@@H](O)[C@H](O)[C@H](O)CO)C2)C[C@@H]1OC [Example 12, 4-amino-5-chloro-2-methoxy-N-((3S,4R)-3-methoxy-1-(6-oxo-6-(((R)-1-(8-oxo-8-(((2S,3R,4R,5R)-2,3,4,5,6-pentahydroxyhexyl)amino)octyl)piperidin-3-yl)amino)hexyl)piperidin-4-yl)benzamide] | 14.6
2 | COc1cc(N)c(Cl)cc1C(=O)N[C@@H]1CCN(CCCCCC(=O)NCCCCCCCC(=O)N[C@H]2C[C@](O)(CO)[C@@H](O)[C@H](O)[C@H]2O)C[C@@H]1OC [Example 24, 4-amino-5-chloro-2-methoxy-N-((3S,4R)-3-methoxy-1-(6-oxo ((8-oxo-8-(((1S,2S,3R,4S,5S)-2,3,4,5-tetrahydroxy (hydroxymethyl)cyclohexyl)amino)octyl)amino)hexyl)piperidin-4-yl)benzamide] | 28.7
3 | COc1cc(N)c(Cl)cc1C(=O)N[C@@H]1CCN(CC(C)CCCC(=O)NCCCCCCCC(=O)NC[C@H](O)[C@@H](O)[C@H](O)[C@H](O)CO)C[C@@H]1OC (stereo partly drawn) [Example 19, 4-amino-5-chloro-2-methoxy-N-((3S,4R)-3-methoxy-1-(2-methyloxo-6-((8-oxo-8-(((2S,3R,4R,5R)-2,3,4,5,6-pentahydroxyhexyl)amino)octyl)amino)hexyl)piperidin-4-yl)benzamide] | 77
4 | CO[C@H]1CN(CC2CCN(C(=O)CCCCCCCC(=O)NC[C@H](O)[C@@H](O)[C@H](O)[C@H](O)CO)CC2)CC[C@H]1NC(=O)c1cc(Cl)c(N)c2c1OCC2 [Example 41, 4-amino-5-chloro-N-((3S,4R)-3-methoxy-1-((1-(9-oxo-9-(((2S,3R,4R,5R)-2,3,4,5,6-pentahydroxyhexyl)amino)nonanoyl)piperidin-4-yl)methyl)piperidin-4-yl)-2,3-dihydrobenzofuran-7-carboxamide] | 1.2
5 | CO[C@H]1CN(CC2CCN(C(=O)CCCCCC(=O)NC[C@H](O)[C@@H](O)[C@H](O)[C@H](O)CO)CC2)CC[C@H]1NC(=O)c1cc(Cl)c(N)c2c1OCC2 [Example 42, 4-amino-5-chloro-N-((3S,4R)-3-methoxy-1-((1-(7-oxo-7-(((2S,3R,4R,5R)-2,3,4,5,6-pentahydroxyhexyl)amino)heptanoyl)piperidin-4-yl)methyl)piperidin-4-yl)-2,3-dihydrobenzofuran-7-carboxamide] | 1.4
6 | Nc1c(Cl)cc(C(=O)NC2CCN(CCCCCC(=O)N[C@@H]3CCCN(CCCCCCCC(=O)NC[C@H](O)[C@@H](O)[C@H](O)[C@H](O)CO)C3)CC2)c2c1CCO2 [Example 28, 4-amino-5-chloro-N-(1-(6-oxo-6-(((R)-1-(8-oxo-8-(((2S,3R,4R,5R)-2,3,4,5,6-pentahydroxyhexyl)amino)octyl)piperidin-3-yl)amino)hexyl)piperidin-4-yl)-2,3-dihydrobenzofuran-7-carboxamide] | 3.8
7 | COc1cc(N)c(Cl)cc1C(=O)N[C@@H]1CCN(CCCCCC(=O)N(C)C2CCN(CCCCCC(=O)NC[C@H](O)[C@@H](O)[C@H](O)[C@H](O)CO)CC2)C[C@@H]1OC [Example 11, 4-amino-5-chloro-2-methoxy-N-((3S,4R)-3-methoxy-1-(6-(methyl(1-(6-oxo-6-(((2S,3R,4R,5R)-2,3,4,5,6-pentahydroxyhexyl)amino)hexyl)piperidinyl)amino)-6-oxohexyl)piperidin-4-yl)benzamide] | 14.2
8 | COc1cc(N)c(Cl)cc1C(=O)N[C@@H]1CCN(C(C)CCCCC(=O)NCCCCCCCC(=O)NC[C@H](O)[C@@H](O)[C@H](O)[C@H](O)CO)C[C@@H]1OC (stereo partly drawn) [Example 18, 4-amino-5-chloro-2-methoxy-N-((3S,4R)-3-methoxy-1-(7-oxo-7-((8-oxo-8-(((2S,3R,4R,5R)-2,3,4,5,6-pentahydroxyhexyl)amino)octyl)amino)heptan-2-yl)piperidin-4-yl)benzamide] | 150
9 | COc1cc(N)c(Cl)cc1C(=O)N[C@@H]1CCN(CCCCCC(=O)NC2CCN(CCCCCC(=O)NC[C@H](O)[C@@H](O)[C@H](O)[C@H](O)CO)CC2)C[C@@H]1OC [Example 9, 4-amino-5-chloro-2-methoxy-N-((3S,4R)-3-methoxy-1-(6-oxo-6-((1-(6-oxo-6-(((2S,3R,4R,5R)-2,3,4,5,6-pentahydroxyhexyl)amino)hexyl)piperidinyl)amino)hexyl)piperidin-4-yl)benzamide] | 8.1
10 | CO[C@H]1CN(CCCCCC(=O)NCCCCCC(=O)NC[C@H](O)[C@@H](O)[C@H](O)[C@H](O)CO)CC[C@H]1NC(=O)c1cc(Cl)c(N)c2c1OCC2 [Example 45, 4-amino-5-chloro-N-((3S,4R)-3-methoxy-1-(6-oxo-6-((6-oxo-6-(((2S,3R,4R,5R)-2,3,4,5,6-pentahydroxyhexyl)amino)hexyl)amino)hexyl)piperidin-4-yl)-2,3-dihydrobenzofuran-7-carboxamide] | 12.1
11 | Nc1c(Cl)cc(C(=O)NCC2CCN(CC3CCN(C(=O)CCCCCCCCCCC(=O)NC[C@H](O)[C@@H](O)[C@H](O)[C@H](O)CO)CC3)CC2)c2c1CCO2 [Example 38, 4-amino-5-chloro-N-((1-((1-(12-oxo-12-(((2S,3R,4R,5R)-2,3,4,5,6-pentahydroxyhexyl)amino)dodecanoyl)piperidin-4-yl)methyl)piperidin-4-yl)methyl)-2,3-dihydrobenzofuran-7-carboxamide] | 1.2
12 | Nc1c(Cl)cc(C(=O)NC2CCN(CCCCCC(=O)NC3CCN(CCCCCCCC(=O)NC[C@H](O)[C@@H](O)[C@H](O)[C@H](O)CO)CC3)CC2)c2c1CCO2 [Example 30, 4-amino-5-chloro-N-(1-(6-oxo-6-((1-(8-oxo-8-(((2S,3R,4R,5R)-2,3,4,5,6-pentahydroxyhexyl)amino)octyl)piperidin-4-yl)amino)hexyl)piperidin-4-yl)-2,3-dihydrobenzofuran-7-carboxamide] | 3.7
13 | COc1cc(N)c(Cl)cc1C(=O)N[C@@H]1CCN(CCCC(C)CC(=O)NCCCCCCCC(=O)NC[C@H](O)[C@@H](O)[C@H](O)[C@H](O)CO)C[C@@H]1OC (stereo partly drawn) [Example 21, 4-amino-5-chloro-2-methoxy-N-((3S,4R)-3-methoxy-1-(4-methyl-6-oxo-6-((8-oxo-8-(((2S,3R,4R,5R)-2,3,4,5,6-pentahydroxyhexyl)amino)octyl)amino)hexyl)piperidin-4-yl)benzamide] | 27.6
14 | Nc1c(Cl)cc(C(=O)NC2CCN(CCCCCC(=O)NC3CCN(CCCCCC(=O)NC[C@H](O)[C@@H](O)[C@H](O)[C@H](O)CO)CC3)CC2)c2c1CCO2 [Example 31, 4-amino-5-chloro-N-(1-(6-oxo-6-((1-(6-oxo-6-(((2S,3R,4R,5R)-2,3,4,5,6-pentahydroxyhexyl)amino)hexyl)piperidin-4-yl)amino)hexyl)piperidin-4-yl)-2,3-dihydrobenzofuran-7-carboxamide] | 6.1
15 | Nc1c(Cl)cc(C(=O)NCC2CCN(CC3CCN(C(=O)CCCCCCCCC(=O)NC[C@H](O)[C@@H](O)[C@H](O)[C@H](O)CO)CC3)CC2)c2c1CCO2 [Example 39, 4-amino-5-chloro-N-((1-((1-(10-oxo-10-(((2S,3R,4R,5R)-2,3,4,5,6-pentahydroxyhexyl)amino)decanoyl)piperidin-4-yl)methyl)piperidin-4-yl)methyl)-2,3-dihydrobenzofuran-7-carboxamide] | 1.2
16 | Nc1c(Cl)cc(C(=O)NC2CCN(CCCCCC(=O)NCCCCCCCC(=O)NC[C@H](O)[C@@H](O)[C@H](O)[C@H](O)CO)CC2)c2c1CCO2 [Example 32, 4-amino-5-chloro-N-(1-(6-oxo-6-((8-oxo-8-(((2S,3R,4R,5R)-2,3,4,5,6-pentahydroxyhexyl)amino)octyl)amino)hexyl)piperidin-4-yl)-2,3-dihydrobenzofuran-7-carboxamide] | 23
17 | COc1cc(N)c(Cl)cc1C(=O)N[C@@H]1CCN(CCCCCC(=O)NCCOCCOCCC(=O)NC[C@H](O)[C@@H](O)[C@H](O)[C@H](O)CO)C[C@@H]1OC [Example 7, 4-amino-5-chloro-2-methoxy-N-((3S,4R)-3-methoxy-1-((19S,20R,21R,22R)-19,20,21,22,23-pentahydroxy-6,16-dioxo-10,13-dioxa-7,17-diazatricosyl)piperidin-4-yl)benzamide] | 23.4
18 | COc1cc(N)c(Cl)cc1C(=O)N[C@@H]1CCN(CCCCCC(=O)NCCCCCCCC(=O)NCCS(=O)(=O)O)C[C@@H]1OC [Example 23, 2-(8-(6-((3S,4R)-4-(4-amino-5-chloro-2-methoxybenzamido)-3-methoxypiperidin-1-yl)hexanamido)octanamido)ethane-1-sulfonic acid] | 56.5
19 | COc1cc(N)c(Cl)cc1C(=O)N[C@@H]1CCN(CCCCCC(=O)NC[C@H](O)[C@@H](O)[C@H](O)[C@H](O)CO)C[C@@H]1OC [Example 1, 4-amino-5-chloro-2-methoxy-N-((3S,4R)-3-methoxy-1-(6-oxo-6-(((2S,3R,4R,5R)-2,3,4,5,6-pentahydroxyhexyl)amino)hexyl)piperidin-4-yl)benzamide] | 19.8

— patent US12653815B2, “Luminally-acting N-(piperidin-4-yl)benzamide derivatives” (Takeda Pharmaceutical Company Limited, priority 2020, dated 2026)
